Results taken from ChEMBL document CHEMBL5653631, “A Potent and Selective ULK1 Inhibitor Suppresses Autophagy and Sensitizes Cancer Cells to Nutrient Stress” (iScience, 2018).

What was measured:
[1] = target: T1, Serine/threonine-protein kinase DCLK3 (Homo sapiens) (UniProt Q9C098); experiment: Inhibition of human recombinant DCAMKL3 at 40 nM related to control ULK1
T1 sequence (whole entry): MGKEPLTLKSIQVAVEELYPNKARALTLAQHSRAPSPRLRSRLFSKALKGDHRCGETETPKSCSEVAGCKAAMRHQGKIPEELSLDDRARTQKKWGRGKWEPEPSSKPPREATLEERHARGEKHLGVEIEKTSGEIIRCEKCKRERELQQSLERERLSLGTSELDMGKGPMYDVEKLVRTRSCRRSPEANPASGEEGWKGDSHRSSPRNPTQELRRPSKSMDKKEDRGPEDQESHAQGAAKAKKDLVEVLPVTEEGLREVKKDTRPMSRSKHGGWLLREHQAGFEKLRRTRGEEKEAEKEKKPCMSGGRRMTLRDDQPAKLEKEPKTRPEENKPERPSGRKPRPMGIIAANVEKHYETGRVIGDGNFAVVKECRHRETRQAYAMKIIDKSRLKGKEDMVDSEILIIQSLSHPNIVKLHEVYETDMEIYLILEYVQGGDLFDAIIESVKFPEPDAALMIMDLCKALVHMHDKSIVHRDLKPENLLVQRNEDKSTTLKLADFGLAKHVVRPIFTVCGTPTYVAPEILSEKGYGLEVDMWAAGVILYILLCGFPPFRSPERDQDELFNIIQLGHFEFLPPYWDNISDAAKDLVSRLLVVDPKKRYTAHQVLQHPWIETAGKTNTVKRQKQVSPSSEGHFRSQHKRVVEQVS

[2] = target: Ribosomal protein S6 kinase alpha-1 (Homo sapiens) (UniProt Q15418); experiment: Inhibition of human recombinant RSK1 at 40 nM related to control ULK1
Homo sapiens = species: Homo sapiens; experiment: Inhibition of human recombinant p70S6K at 40 nM in presence of ATP by radiometric assay relative to control
[3] = target: Receptor-type tyrosine-protein kinase FLT3 (Homo sapiens) (UniProt P36888); experiment: Inhibition of human recombinant FLT3 at 40 nM in presence of ATP by radiometric assay relative to control
[4] = target: T2, Myosin-IIIb (Homo sapiens) (UniProt Q8WXR4); experiment: Inhibition of human recombinant MYO3B at 15 nM in presence of ATP by radiometric assay relative to control
T2 sequence (whole entry): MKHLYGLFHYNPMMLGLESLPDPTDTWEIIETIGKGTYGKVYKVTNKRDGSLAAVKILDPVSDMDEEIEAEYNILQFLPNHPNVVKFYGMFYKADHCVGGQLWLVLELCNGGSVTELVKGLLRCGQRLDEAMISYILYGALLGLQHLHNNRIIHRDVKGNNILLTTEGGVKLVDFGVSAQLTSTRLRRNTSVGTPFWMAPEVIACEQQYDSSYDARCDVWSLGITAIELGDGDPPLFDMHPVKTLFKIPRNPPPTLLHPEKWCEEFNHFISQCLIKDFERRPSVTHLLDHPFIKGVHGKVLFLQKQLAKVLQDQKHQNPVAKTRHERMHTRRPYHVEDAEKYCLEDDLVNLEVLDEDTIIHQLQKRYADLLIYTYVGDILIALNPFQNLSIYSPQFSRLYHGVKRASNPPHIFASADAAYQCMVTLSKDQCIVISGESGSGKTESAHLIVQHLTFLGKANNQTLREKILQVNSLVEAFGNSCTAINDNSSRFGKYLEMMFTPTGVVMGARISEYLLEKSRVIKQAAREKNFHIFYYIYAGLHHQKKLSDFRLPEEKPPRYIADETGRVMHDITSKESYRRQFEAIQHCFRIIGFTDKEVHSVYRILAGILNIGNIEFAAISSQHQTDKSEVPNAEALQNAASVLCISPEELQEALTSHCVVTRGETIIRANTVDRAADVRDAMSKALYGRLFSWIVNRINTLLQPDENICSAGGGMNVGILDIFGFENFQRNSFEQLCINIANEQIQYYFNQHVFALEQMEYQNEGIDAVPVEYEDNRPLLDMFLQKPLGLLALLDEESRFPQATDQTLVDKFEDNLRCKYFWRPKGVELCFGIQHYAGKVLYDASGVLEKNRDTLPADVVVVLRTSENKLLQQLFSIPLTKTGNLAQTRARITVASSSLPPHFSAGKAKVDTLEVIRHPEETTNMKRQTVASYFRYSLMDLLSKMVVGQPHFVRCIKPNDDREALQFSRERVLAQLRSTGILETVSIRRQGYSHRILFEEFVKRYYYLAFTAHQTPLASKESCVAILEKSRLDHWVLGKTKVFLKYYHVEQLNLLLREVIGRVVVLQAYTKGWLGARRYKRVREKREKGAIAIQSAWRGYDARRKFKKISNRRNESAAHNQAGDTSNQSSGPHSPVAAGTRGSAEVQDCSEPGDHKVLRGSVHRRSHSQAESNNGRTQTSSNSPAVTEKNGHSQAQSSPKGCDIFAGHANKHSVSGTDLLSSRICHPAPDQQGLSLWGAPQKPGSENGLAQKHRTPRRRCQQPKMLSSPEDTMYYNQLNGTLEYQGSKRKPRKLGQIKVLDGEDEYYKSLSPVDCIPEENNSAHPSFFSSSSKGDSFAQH

[5] = target: Dual specificity protein kinase CLK2 (Homo sapiens) (UniProt P49760); experiment: Inhibition of human recombinant CLK2 at 15 nM related to control ULK1
[6] = target: T3, Serine/threonine-protein kinase Sgk2 (Homo sapiens) (UniProt Q9HBY8); experiment: Inhibition of human recombinant SGK2 at 15 nM related to control ULK1
T3 sequence (whole entry): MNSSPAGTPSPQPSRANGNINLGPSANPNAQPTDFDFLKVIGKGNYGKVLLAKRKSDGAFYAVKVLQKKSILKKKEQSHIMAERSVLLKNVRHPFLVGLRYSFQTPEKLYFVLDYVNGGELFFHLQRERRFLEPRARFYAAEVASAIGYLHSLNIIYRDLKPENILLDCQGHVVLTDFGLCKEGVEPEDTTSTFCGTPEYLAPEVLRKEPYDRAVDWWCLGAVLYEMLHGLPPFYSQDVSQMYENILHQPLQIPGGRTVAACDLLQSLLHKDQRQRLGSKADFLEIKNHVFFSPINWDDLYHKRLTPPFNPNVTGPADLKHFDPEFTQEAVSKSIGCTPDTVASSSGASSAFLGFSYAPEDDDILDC

[7] = target: Serine/threonine-protein kinase PAK 3 (Homo sapiens) (UniProt O75914); experiment: Inhibition of human recombinant PAK3 at 15 nM in presence of ATP by radiometric assay relative to control
[8] = target: Serine/threonine-protein kinase WNK1 (Homo sapiens) (UniProt Q9H4A3); experiment: Inhibition of human recombinant Wnk1 at 500 nM in presence of ATP by radiometric assay relative to control
[9] = target: Serine/threonine-protein kinase PAK 2 (Homo sapiens) (UniProt Q13177); experiment: Inhibition of human recombinant PAK2 at 500 nM in presence of ATP by radiometric assay relative to control
[10] = target: Cyclin-dependent kinase 3 (Homo sapiens) (UniProt Q00526); experiment: Inhibition of human recombinant CDK3 at 500 nM related to control ULK1
Sequence of Cyclin-dependent kinase 3 (Homo sapiens) (Q00526 whole entry, looked up): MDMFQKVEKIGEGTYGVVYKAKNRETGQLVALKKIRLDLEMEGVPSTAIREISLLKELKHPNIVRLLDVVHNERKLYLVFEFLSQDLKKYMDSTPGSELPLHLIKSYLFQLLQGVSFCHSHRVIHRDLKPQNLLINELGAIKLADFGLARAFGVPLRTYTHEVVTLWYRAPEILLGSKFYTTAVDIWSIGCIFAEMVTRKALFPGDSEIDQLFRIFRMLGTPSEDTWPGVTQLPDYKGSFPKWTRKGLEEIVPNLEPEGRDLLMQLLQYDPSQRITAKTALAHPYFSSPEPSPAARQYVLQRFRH

Sequence of Serine/threonine-protein kinase PAK 2 (Homo sapiens) (Q13177 whole entry): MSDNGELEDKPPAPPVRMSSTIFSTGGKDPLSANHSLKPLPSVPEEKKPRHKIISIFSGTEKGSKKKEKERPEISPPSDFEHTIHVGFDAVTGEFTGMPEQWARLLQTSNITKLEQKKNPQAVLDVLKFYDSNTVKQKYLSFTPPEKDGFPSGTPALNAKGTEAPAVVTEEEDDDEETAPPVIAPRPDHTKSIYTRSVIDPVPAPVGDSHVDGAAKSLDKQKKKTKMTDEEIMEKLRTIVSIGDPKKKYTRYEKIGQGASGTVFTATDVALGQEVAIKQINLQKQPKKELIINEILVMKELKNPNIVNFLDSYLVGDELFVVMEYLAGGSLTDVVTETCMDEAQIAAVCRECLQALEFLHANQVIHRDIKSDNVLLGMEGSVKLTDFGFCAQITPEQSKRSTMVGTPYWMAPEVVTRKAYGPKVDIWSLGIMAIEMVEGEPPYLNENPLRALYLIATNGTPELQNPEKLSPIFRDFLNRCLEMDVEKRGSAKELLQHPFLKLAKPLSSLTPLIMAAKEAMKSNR
Sequence of Receptor-type tyrosine-protein kinase FLT3 (Homo sapiens) (P36888 whole entry): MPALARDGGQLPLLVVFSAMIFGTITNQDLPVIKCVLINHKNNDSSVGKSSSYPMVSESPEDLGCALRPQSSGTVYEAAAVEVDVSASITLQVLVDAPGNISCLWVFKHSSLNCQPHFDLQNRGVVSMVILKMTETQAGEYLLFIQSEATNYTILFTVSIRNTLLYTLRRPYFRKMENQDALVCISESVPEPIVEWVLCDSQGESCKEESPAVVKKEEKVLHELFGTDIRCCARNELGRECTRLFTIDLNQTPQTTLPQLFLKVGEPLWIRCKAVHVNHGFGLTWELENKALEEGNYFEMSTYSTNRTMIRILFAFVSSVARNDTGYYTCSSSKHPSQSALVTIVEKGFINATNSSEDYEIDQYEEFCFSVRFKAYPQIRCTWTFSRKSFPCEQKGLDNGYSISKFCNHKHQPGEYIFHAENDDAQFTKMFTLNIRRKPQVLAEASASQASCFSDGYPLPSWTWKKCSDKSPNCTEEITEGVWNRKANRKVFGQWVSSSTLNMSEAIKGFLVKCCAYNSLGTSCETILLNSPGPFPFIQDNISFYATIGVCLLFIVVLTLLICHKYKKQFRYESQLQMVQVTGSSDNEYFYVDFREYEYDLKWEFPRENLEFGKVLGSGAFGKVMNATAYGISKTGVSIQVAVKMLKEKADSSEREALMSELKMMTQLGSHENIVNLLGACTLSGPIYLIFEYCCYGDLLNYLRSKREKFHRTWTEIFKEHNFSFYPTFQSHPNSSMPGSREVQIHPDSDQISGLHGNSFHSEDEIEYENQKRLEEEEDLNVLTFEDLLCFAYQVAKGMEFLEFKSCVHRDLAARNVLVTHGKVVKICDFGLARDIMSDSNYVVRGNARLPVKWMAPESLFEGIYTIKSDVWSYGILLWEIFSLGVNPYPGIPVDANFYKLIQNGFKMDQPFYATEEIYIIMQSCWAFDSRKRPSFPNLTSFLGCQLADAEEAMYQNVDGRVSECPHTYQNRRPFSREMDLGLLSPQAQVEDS
Sequence of Serine/threonine-protein kinase WNK1 (Homo sapiens) (Q9H4A3 whole entry, looked up): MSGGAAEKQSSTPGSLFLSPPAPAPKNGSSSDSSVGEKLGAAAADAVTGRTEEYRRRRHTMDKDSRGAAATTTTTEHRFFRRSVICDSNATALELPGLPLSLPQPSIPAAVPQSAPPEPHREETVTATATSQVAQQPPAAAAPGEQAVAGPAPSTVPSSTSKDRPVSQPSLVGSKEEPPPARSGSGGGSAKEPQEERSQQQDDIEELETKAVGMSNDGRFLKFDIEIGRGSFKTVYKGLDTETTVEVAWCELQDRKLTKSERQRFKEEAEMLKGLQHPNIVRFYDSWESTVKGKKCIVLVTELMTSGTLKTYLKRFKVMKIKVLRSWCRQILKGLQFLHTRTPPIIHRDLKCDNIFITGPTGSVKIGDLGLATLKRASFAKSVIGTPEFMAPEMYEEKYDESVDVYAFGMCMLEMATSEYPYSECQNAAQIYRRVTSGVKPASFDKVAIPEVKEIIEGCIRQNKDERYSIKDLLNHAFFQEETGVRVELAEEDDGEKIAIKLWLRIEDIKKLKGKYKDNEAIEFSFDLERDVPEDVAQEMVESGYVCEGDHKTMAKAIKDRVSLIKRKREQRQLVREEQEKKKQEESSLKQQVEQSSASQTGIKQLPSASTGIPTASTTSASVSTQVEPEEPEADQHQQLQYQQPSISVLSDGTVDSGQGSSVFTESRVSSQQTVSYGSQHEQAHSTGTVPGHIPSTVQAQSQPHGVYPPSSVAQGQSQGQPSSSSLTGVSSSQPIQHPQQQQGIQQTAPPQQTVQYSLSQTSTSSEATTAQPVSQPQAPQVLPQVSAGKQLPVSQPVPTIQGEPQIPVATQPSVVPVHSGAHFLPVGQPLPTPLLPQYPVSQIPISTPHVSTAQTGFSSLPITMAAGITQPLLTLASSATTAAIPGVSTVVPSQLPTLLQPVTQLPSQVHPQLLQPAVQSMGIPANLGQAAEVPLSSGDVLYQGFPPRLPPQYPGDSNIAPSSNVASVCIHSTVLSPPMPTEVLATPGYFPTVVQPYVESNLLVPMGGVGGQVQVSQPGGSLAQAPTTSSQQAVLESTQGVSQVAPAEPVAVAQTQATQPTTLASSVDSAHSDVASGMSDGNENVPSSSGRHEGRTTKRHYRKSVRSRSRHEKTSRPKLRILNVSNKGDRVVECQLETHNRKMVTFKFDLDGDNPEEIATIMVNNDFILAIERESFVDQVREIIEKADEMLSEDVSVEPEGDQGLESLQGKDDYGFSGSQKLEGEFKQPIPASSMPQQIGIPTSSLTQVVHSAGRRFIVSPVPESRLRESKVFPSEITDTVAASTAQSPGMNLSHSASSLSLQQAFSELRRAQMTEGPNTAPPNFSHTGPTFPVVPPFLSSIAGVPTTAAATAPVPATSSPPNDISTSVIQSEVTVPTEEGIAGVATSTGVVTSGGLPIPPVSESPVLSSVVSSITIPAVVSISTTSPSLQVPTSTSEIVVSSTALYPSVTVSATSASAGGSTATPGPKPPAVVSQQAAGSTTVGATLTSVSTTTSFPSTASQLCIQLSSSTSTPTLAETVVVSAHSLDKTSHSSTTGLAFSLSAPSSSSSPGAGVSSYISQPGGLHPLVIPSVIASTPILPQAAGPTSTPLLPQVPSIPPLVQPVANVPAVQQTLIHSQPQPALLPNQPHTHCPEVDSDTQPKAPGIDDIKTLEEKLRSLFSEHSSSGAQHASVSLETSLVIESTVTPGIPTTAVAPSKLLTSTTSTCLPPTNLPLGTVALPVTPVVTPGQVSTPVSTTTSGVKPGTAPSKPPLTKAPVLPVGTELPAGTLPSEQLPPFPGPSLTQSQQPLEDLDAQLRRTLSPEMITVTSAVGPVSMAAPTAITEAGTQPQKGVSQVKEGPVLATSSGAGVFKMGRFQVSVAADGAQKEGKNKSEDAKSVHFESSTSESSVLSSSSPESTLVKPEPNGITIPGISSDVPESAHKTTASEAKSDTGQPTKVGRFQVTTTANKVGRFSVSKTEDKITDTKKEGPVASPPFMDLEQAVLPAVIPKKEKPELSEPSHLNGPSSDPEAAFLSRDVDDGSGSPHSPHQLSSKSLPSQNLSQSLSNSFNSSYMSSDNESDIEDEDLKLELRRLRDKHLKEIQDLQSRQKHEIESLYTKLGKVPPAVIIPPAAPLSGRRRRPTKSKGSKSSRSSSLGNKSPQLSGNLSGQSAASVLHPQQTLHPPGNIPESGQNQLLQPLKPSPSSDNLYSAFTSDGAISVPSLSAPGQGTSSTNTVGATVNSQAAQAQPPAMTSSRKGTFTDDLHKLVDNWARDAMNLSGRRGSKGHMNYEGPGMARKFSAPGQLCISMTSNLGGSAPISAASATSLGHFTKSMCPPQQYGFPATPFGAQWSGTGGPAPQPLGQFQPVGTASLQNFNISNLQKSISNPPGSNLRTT
Sequence of Ribosomal protein S6 kinase alpha-1 (Homo sapiens) (Q15418 whole entry): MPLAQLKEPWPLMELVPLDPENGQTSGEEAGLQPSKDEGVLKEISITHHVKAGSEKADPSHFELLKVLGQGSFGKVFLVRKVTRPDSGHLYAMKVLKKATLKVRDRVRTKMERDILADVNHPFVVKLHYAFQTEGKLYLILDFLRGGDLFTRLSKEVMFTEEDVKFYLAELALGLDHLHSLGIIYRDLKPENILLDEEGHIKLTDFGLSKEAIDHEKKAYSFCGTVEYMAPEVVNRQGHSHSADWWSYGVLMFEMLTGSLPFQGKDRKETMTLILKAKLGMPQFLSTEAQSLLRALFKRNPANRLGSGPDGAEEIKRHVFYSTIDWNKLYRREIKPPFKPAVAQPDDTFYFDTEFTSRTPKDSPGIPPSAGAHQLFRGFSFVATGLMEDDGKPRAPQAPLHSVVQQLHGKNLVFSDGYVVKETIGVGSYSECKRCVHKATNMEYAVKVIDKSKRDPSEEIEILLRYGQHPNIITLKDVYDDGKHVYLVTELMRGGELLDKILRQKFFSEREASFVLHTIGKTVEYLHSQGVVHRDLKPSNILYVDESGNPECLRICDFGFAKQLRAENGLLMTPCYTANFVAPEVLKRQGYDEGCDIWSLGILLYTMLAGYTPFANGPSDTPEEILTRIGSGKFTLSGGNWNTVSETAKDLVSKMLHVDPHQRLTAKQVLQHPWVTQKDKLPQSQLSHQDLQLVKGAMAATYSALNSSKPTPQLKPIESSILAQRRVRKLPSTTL

**Q.** How did the fold change (FC) [1] turn out when `O=C(N[C@@H](C1CC1)C(F)(F)F)c1cc(-c2cnn3cc(-c4ccc(F)cc4)cnc23)cs1` was run?
**A.** 0.03

**Q.** And the fold change (FC) [2]?
**A.** 0.11

**Q.** And the inhibition (Homo sapiens)?
**A.** 2%

**Q.** And the inhibition [3]?
**A.** 19%

**Q.** `CC(C)[C@H](NC(=O)c1cc(-c2cnn3cc(-c4ccc(OCCN5CCCCC5)cc4)cnc23)cs1)C(F)(F)F` was tested. Which inhibition [4] did it give?
**A.** 6%

**Q.** What about the fold change (FC) [5] of the same compound?
**A.** 0.33

**Q.** What about the fold change (FC) [6] of the same compound?
**A.** 0

**Q.** And the inhibition [7]?
**A.** 4%

**Q.** For `CNC(=O)c1ccccc1Oc1nc(Nc2cc(OC)c(OC)c(OC)c2)ncc1Br`, which inhibition [8] is on record?
**A.** 0%

**Q.** What about the inhibition [9] of the same compound?
**A.** 14%

**Q.** What about the fold change (FC) [10] of the same compound?
**A.** 0.01
